Measurements taken from patent US9611276B2, “Imidazo bicyclic iminium compounds as antitumor agents” (THE BOARD OF TRUSTEES OF THE LELAND STANFORD JUNIOR …, priority 2012, dated 2017).
Like-named read-outs stand apart in the source and are kept apart here.

Assays:
[1] = test system: endogenous Hh target gene expression (Gli1 mRNA); assay: Gli1 mRNA levels in NIH-3T3 cells with ShhN; assay type: cell-based
Protocol: NIH-3T3 cells were obtained from ATCC and cultured in DMEM (Invitrogen, 11965) containing 10% (v/v) calf serum (ATCC, 30-2030), 1 mM sodium pyruvate (Invitrogen, 11360) and 1× PenStrep (Gibco, 15140).
(§1) All test compounds were dissolved in DMSO at 50 mM, serially diluted by 1:3, 1:4 or 1:5 in a 96-well translucent microplate (Greiner bio-one, 650201) and stored at −20° C. These serial dilutions were added to assay media freshly with final DMSO concentration of 0.2% (v/v).
Quantification of Gli1 mRNA levels in NIH-3T3 cells provides a measure of endogenous Hh target gene expression. NIH 3T3 cells were seeded into 96-well plates (36,000 cells/well), cultured to confluency for 24 hrs and then incubated with test compounds in DMEM (Invitrogen, 11965) containing 0.5% (v/v) calf serum (ATCC, 30-2030), 1 mM sodium pyruvate (Invitrogen, 11360), 1× PenStrep (Gibco, 15140) and 10% (v/v) ShhN-conditioned medium for 24 hrs. The cells were lysed and the lysate was used to prepare cDNA using a Cells-to-CT kit (Ambion) according to the manufacturer's protocols. The cDNA was then quantified with Gli1 and GAPDH Taqman probes (Mm00494645m1 and Mm99999914g1, Applied Biosystems) on a Roche Lightcycler 480, using the 2nd derivative/maximum method to obtain Ct values. Biological triplicates were analyzed for each test compounds.

Sufu-KO-LIGHT cells = assay: Sufu-KO-LIGHT cell assay, cytotoxicity (CellTiter 96 AQueous One); assay type: cell-based, mouse
Protocol: (§2) Sufu-KO-LIGHT cells were derived from Sufu knockout mouse embryonic fibroblasts according to the method of Chen et al. [Genes Dev. 2009; 23(16):1910-28.] The cells were co-transfected with the zeocin resistance vector (pVgRXR, Invitrogen) and a firefly luciferase reporter driven by eight Gli binding sites and a γ-crystallin basal promoter (8XGliBS-FL) [see Sasaki et al. Development. 1997; 124(7):1313-22.2]. […] Sufu-KO-LIGHT cells were cultured in DMEM (Invitrogen, 11965) containing 10% (v/v) fetal bovine serum (Invitrogen, No. 26140), 150 μg/mL zeocin (Invitrogen, R250-01), 1 mM sodium pyruvate (Invitrogen, 11360) and 1× PenStrep (Gibco, 15140).
as §1
The Sufu-KO-LIGHT cell assay provides a measure of Hh pathway activity and cytotoxicity. […] Bright Glo (Promega, E2620) reagent (50 μL/well) was added to the cells, and luciferase activities were determined on a microplate luminometer (Veritas). […] Cell viability was determined by measuring absorption at 490 nm after 1 hr of incubation on a microplate spectrophotometer (Benchmark Plus, Bio-Rad). Biological triplicates were analyzed for each test compounds.

Gli2 = Gli2 (Homo sapiens, UniProt P10070); assay: Overexpression of Gli2 in Gli1 null cells, firefly luciferase reporter; assay type: cell-based, mouse; set-up: expressed in transfected cells; host or cells: Gli1-/- immortalized mouse embryonic fibroblasts
Protocol: Gli1 null cells [see Lipinski et al. BMC Cell Biol. 2008; 9:49], an immortalized mouse embryonic fibroblast cell line lacking the Gli1 gene, were cultured in DMEM (Invitrogen, 11965) containing 10% (v/v) calf serum (ATCC, 30-2030), 1 mM sodium pyruvate (Invitrogen, 11360), 1× PenStrep (Gibco, 15140) and 1×MEM non-essential amino acids solution (11140, Invitrogen).
as §1
Overexpression of Gli2 in Gli1 null cells provides a measure of Gli2-induced pathway activity. pcDNA-derived Gli2 expression vectors (200 ng/well) and a 1:19 mixture (total 200 ng/well) of constitutive Renilla luciferase reporter (pRLTK, Promega) and firefly luciferase reporter (8XGliBS-FL) were mixed with FuGene HD transfection reagent (1.2 μL/well, Promega, E2311) in Opti-MEM Reduced-Serum Medium with GLutaMAX (Invitrogene, 51985) at a total volume of 25 μL/well. […] The cells were lysed with passive lysis buffer (200 μL/well), and 10 μL of the obtained lysate were analyzed for firefly and Renilla luciferase activities using Dual-Luciferase Reporter Assay System (Promega, E1960) (50 μL/well of each reagent) on a microplate luminometer (Veritas). […]

Hh pathway activity = assay: Sufu-KO-LIGHT cell assay, Gli-dependent firefly luciferase reporter; assay type: cell-based, mouse; details: for IC50: Mus musculus
Protocol: as §2, §1
The Sufu-KO-LIGHT cell assay provides a measure of Hh pathway activity and cytotoxicity. Sufu-KO-LIGHT cells were seeded into a 96-well plate (35,000 cells/well), cultured to confluency for 24 hrs and then incubated with test compounds in DMEM without phenol red (Invitrogen, 26140) containing 0.5% (v/v) fetal bovine serum (Invitrogen, No. 26140), 150 μg/mL zeocin (Invitrogen, R250-01), 1 mM sodium pyruvate (Invitrogen, 11360), 1× PenStrep (Gibco, 15140) for 16 hrs. Bright Glo (Promega, E2620) reagent (50 μL/well) was added to the cells, and luciferase activities were determined on a microplate luminometer (Veritas). To assess cytotoxicity, after 15 hrs of incubation with test compounds, CellTiter 96 AQueous One Solution Cell Proliferation Assay (Promega, G3580) reagent (20 μL/well) was added. Cell viability was determined by measuring absorption at 490 nm after 1 hr of incubation on a microplate spectrophotometer (Benchmark Plus, Bio-Rad). Biological triplicates were analyzed for each test compounds.

Sequence of Gli2 (P10070 whole entry, species assumed): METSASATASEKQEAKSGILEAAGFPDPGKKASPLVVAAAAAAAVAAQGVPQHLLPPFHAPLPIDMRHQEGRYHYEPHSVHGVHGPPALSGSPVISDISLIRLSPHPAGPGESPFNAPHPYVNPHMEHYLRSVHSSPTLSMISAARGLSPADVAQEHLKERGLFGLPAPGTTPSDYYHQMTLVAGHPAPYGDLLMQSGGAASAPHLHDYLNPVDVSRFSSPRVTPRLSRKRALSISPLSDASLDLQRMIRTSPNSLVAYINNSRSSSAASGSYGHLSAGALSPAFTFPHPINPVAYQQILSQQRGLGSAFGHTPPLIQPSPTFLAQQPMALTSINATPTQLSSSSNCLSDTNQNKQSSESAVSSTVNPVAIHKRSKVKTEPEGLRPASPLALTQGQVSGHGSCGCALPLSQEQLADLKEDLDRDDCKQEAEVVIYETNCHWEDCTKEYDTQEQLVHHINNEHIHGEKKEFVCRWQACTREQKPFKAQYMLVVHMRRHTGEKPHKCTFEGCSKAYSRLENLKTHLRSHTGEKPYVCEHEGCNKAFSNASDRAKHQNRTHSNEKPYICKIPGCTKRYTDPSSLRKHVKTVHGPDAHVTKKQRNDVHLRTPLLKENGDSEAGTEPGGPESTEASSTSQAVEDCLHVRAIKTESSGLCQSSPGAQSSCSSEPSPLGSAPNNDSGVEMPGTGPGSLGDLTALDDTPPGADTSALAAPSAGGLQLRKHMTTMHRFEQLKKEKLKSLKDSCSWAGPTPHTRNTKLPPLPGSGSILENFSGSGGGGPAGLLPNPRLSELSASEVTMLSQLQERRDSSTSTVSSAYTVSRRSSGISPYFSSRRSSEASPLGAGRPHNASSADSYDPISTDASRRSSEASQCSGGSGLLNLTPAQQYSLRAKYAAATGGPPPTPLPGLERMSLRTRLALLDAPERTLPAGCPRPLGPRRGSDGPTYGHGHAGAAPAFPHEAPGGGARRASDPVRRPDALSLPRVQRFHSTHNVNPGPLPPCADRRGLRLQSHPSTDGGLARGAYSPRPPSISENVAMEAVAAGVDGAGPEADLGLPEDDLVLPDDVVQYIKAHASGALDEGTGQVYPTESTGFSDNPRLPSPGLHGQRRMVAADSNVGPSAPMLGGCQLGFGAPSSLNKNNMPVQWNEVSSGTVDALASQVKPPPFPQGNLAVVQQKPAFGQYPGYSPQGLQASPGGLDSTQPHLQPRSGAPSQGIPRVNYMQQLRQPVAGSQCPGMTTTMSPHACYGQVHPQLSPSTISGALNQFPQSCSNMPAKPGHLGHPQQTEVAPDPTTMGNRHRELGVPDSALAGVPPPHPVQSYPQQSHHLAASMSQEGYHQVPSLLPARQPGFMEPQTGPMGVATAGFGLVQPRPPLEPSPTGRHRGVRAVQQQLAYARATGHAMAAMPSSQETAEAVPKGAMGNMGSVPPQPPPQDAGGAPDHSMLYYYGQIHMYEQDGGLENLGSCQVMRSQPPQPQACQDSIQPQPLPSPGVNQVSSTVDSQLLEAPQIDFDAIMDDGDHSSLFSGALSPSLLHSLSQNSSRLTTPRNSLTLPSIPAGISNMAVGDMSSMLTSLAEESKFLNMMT

## CCOc1ccc(-[n+]2cc(-c3ccc(Br)cc3)n3c2CCCCC3)cc1 [Compound A-1]
[1]
  ShhN-dependent expression of endogenous target genes (Gli1): inhibited
[1]; Mus musculus, NIH3T3, NIH-3T3 w/ ShhN
  IC50: 5000 nM
Sufu-KO-LIGHT cells
  General cytotoxicity: not generally cytotoxic
Sufu-KO-LIGHT cells; Sufu-KO-LIGHT cells
  IC50, cytotoxicity: No toxicity
Gli2
  Gli2-induced Hh reporter expression in cells lacking Gli1: not able to inhibit
Gli2; Gli2-overexpressing Gli1-/-
  IC50, firefly luciferase: No inhibition
Hh pathway activity
  IC50: 1420 ± 960 nM
Hh pathway activity; read-out: IC50, firefly luciferase
  IC50: 1420 ± 960 nM
Hh pathway activity; Sufu-KO-LIGHT cells
  Inhibition of Hh pathway activity: inhibits Hh pathway activity
